# In patent US20040052879A1, “Method for the extraction of pharmaceutically active products from spermatophyte plants, products thus obtained and their use in the medical field, in particular as substances with anti-tumoral activity” (priority 2000, published 2004):
# Legend:
# [1] = tested on: M14 cells (malignant melanoma); assay: Cell replication of M14 cells (Coulter Counter count); type: cell-based; conditions: for IC50: Homo sapiens, 72 h incubation, read-out: concentration inhibiting 50% of cell replication (CI50)
# Procedure: (§1) During the experiments a series of cell lines originating from different types of tumors has been used. All cell lines have been grown and kept in a RPMI-1640 medium added with 10% fetal calf serum (FCS) and 1% penicillin-streptomycin. The substances according to the invention have been dissolved in dimethyl-sulfoxide (DMSO) at an initial concentration of 100 mM and added to the cell cultures in the concentrations indicated. DMSO alone has been added to control cultures. The cells placed on a microplate in a concentration of 1×10^5/ml have been incubated with various doses of each substance and for different periods of time. At the end of the treatment cell replication has been evaluated by a cellular count carried out using a Coulter Counter. Cells belonging to the M14 tumor line (malignant melanoma) have been incubated for various periods of time with 1.25, 2.5, 5, 10, 20, 40 and 80 mcg/ml of cis-resveratrol (C-Res), or DMSO alone as far as controls are concerned.
# [2] = tested on: M14 cells (malignant melanoma); assay: Apoptosis of M14 cells by flow cytofluorometry (PI DNA content); type: cell-based
# Procedure: The cells have been resuspended in a concentration of 1×10^6/ml and incubated for different periods of time and with various doses of each substance. At the end of the incubation period the cells have been fixed in acetone/methanol 1:4, treated with 100 KU/ml of RNase and marked with propydium iodide (50 mcg/ml). The cells have then been analyzed by means of flow cytofluorometry using a cytometer FACscan. […] Said effect is indeed particularly significant starting from a dose of 20 mcg/ml and the peak of activity can be observed after 48 h. An activity having a similar course is performed by C-Res on cell mortality (FIG. 3), even though for said parameter the percentages of cells reacting to the action of the drug are extremely higher.
# [3] = tested on: M14 cells (malignant melanoma); assay: Cellular cycle analysis of M14 cells by flow cytometry; type: cell-based; conditions: for induction of cell accumulation in stage G1/S: 72 h, lowest dose (2.5 mcg/ml)
# Procedure: The cells have been resuspended in a concentration of 1×10^6/ml and incubated for different periods of time and with various doses of each substance. At the end of the incubation period the cells have been fixed in acetone/methanol 1:4, treated with 100 KU/ml of RNase and marked with propydium iodide (50 mcg/ml). The various stages of the cellular cycle have then been analyzed by means of flow cytometry with a cytometer FACscan using a suitable statistic program. […] Indeed, after only 24 h of cell incubation with C-Res and starting from a dose of 1.25 mcg/ml, a significant block of the cellular cycle on S/G2M level can be observed, with the consequent increase of the percentage of cells in S stage. Said block remains, at higher doses, constant for the following hours.
# [4] = tested on: PAR-MEL cells (malignant melanoma resisting to chemotherapeutic treatments); assay: Cell replication of PAR-MEL cells; type: cell-based
# Procedure: as §1, with “Counter.” for “Counter. Cells belonging to the M14 tumor line (malignant melanoma) have been incubated for various periods of time with 1.25, 2.5, 5, 10, 20, 40 and 80 mcg/ml of cis-resveratrol (C-Res), or DMSO alone as far as controls are concerned.”
# [5] = tested on: PAR-MEL cells (malignant melanoma resisting to chemotherapeutic treatments); assay: Apoptosis of PAR-MEL cells by flow cytofluorometry (PI DNA content); type: cell-based; conditions: 40 mcg/ml, 72 h incubation
# Procedure: (§2) The cells have been resuspended in a concentration of 1×10^6/ml and incubated for different periods of time and with various doses of each substance. At the end of the incubation period the cells have been fixed in acetone/methanol 1:4, treated with 100 KU/ml of RNase and marked with propydium iodide (50 mcg/ml). The cells have then been analyzed by means of flow cytofluorometry using a cytometer FACscan.
# [6] = tested on: PAR-MEL cells (malignant melanoma resisting to chemotherapeutic treatments); assay: Cell mortality of PAR-MEL cells; type: cell-based; conditions: 40 mcg/ml
# Procedure: The cells placed on a microplate in a concentration of 1×10^5/ml have been incubated with various doses of each substance and for different periods of time. At the end of the treatment cell mortality has been evaluated by a cellular count in trypan blue and/or by flow cytometry using a cytometer FACscan (Becton-Dickinson), determining the vitality of unfixed cells which have been marked with propydium iodide (PI). […] Only for the dose of 40 mcg/ml the plateau is reached after only 24 h of incubation.
# [7] = tested on: PAR-MEL cells (malignant melanoma resisting to chemotherapeutic treatments); assay: Cellular cycle analysis of PAR-MEL cells by flow cytometry; type: cell-based; conditions: after 24 h incubation
# Procedure: The cells have been resuspended in a concentration of 1×10^6/ml and incubated for different periods of time and with various doses of each substance. At the end of the incubation period the cells have been fixed in acetone/methanol 1:4, treated with 100 KU/ml of RNase and marked with propydium iodide (50 mcg/ml). The various stages of the cellular cycle have then been analyzed by means of flow cytometry with a cytometer FACscan using a suitable statistic program. As far as the effects on the cellular cycle (FIG. 8) are concerned, after only 24 h of incubation of PAR-MEL cells with C-Res and starting from a dose of 5 mcg/ml, a significant block of the cellular cycle on G1-S/G2M level can be observed, with a consequent increase in the percentage of cells in S stage and at higher doses in G1 stage. Said block remains constant for the following hours.
# [8] = tested on: HT-29 cells (colorectal adenocarcinoma); assay: Cell growth of HT-29 cells; type: cell-based; conditions: until 72 hours
# Procedure: as §1, with “Counter.” for “Counter. Cells belonging to the M14 tumor line (malignant melanoma) have been incubated for various periods of time with 1.25, 2.5, 5, 10, 20, 40 and 80 mcg/ml of cis-resveratrol (C-Res), or DMSO alone as far as controls are concerned.”
# [9] = tested on: HT-29 cells (colorectal adenocarcinoma); assay: Apoptosis of HT-29 cells by flow cytofluorometry (PI DNA content); type: cell-based; conditions: 5 mcg/ml, all times of incubation (24, 48, 72 h)
# Procedure: as §2, with “FACscan. […] For all other doses an increase of the effect related to the time of incubation can be observed.” for “FACscan.”
# [10] = tested on: HT-29 cells (colorectal adenocarcinoma); assay: Cell mortality of HT-29 cells; type: cell-based; conditions: all doses (5-40 mcg/ml)
# Procedure: The cells placed on a microplate in a concentration of 1×10^5/ml have been incubated with various doses of each substance and for different periods of time. At the end of the treatment cell mortality has been evaluated by a cellular count in trypan blue and/or by flow cytometry using a cytometer FACscan (Becton-Dickinson), determining the vitality of unfixed cells which have been marked with propydium iodide (PI). […] For all doses the peak of activity is detected after 48 hours of incubation.
# [11] = tested on: HT-29 cells (colorectal adenocarcinoma); assay: Cellular cycle analysis of HT-29 cells by flow cytometry; type: cell-based; conditions: only after 48 h incubation
# Procedure: The cells have been resuspended in a concentration of 1×10^6/ml and incubated for different periods of time and with various doses of each substance. At the end of the incubation period the cells have been fixed in acetone/methanol 1:4, treated with 100 KU/ml of RNase and marked with propydium iodide (50 mcg/ml). The various stages of the cellular cycle have then been analyzed by means of flow cytometry with a cytometer FACscan using a suitable statistic program. For these cells the effects on the cellular cycle (FIG. 12) are evident only after 48 h of incubation starting from a dose of 10 mcg/ml and consist in a block of the cellular cycle on G1-S/G2M level.
# [12] = Stability of the active agent in culture medium (HPLC/GC quantification); type: physicochemical; conditions: for halving time in culture medium: culture medium of ex. 10 (RPMI-1640, 10% FCS); for amount still present at the end of the test: culture medium of ex. 10, 72 h
# Procedure: As far as resveratrols are concerned, they can be obtained with two alternative techniques, HPLC or GC. For both techniques quantification is carried out with the internal standard method. The compound we have found to be optimal is trans4-hydroxy-stilbene, commercially available.
# For HPLC the reference method with reverse-phase column can be applied, with detection at 310 nm for trans isomers and at 282 for cis isomer (Mattivi F. Solid phase extraction of trans-resveratrol from wines for HPLC analysis. Zeftschrift für Lebensmittel-Untersuchung und Forschung, 1993, 196, 522-525). The instrumental conditions are the same as those described above for viniferine. The coefficient of molar extinction of both glucosides is almost the same as the one of the corresponding aglycones, so that they can be determined as such after carrying out a correction for molecular weights (Mattivi et al. Isolation, characterization, and evolution in red wine vinification of resveratrol monomers, J. Agric. Food Chem., 1995, 43, 7, 1820-1823).
# If a preparation for aqueous or hydroalcoholic matrixes is necessary, the injection should be preceded by a pre-purification step on reverse-phase cartridges according to Mattivi F. Solid phase extraction of trans-resveratrol from wines for HPLC analysis. Zeitschrift für Lebensmittel-Untersuchung und Forschung, 1993, 196, 522-525. In addition to what is contained in the aforesaid document, it has been verified that the method is suitable for all monomer stilbenes, both free and glucosides, and that the eluted fraction of ethyl acetate can be dried under a mild flow of nitrogen, in case it is necessary to carry out the exchange in another solvent and/or to further reduce the limits of quantification.
# Said techniques can be used for instance to control the stability of the active agent in culture mediums, and therefore to support in vitro experimental models which are going to be described in the following examples. For instance, for the culture means described in ex.
# During the experiments a series of cell lines originating from different types of tumors has been used. All cell lines have been grown and kept in a RPMI-1640 medium added with 10% fetal calf serum (FCS) and 1% penicillin-streptomycin.
compound,measurement,setting,value
"Oc1ccc(/C=C\c2cc(O)cc(O)c2)cc1 [C-Res, cis-resveratrol]",IC50,[1],2.7 µg/mL
same,effect on cell growth,[1]; all tested doses (1.25-80 mcg/ml),can inhibit cell growth
same,effect on cell replication,[1]; dose 40 mcg/ml,cytotoxic activity
same,effect on cell replication,[1]; dose range 5-20 mcg/ml,significant cytostatic activity
same,dose from which increase in apoptotic cells is particularly significant,[2],≥ 20 µg/mL
same,time of peak of apoptotic activity,[2],48 h
same,induction of cell accumulation in stage G1/S,[3],could induce cell accumulation in stage G1/S
same,dose from which significant block of the cellular cycle on S/G2M level is observed,[3]; after 24 h incubation,≥ 1.25 µg/mL
same,effect on cell replication,[4]; dose 20 and 40 mcg/ml,cytotoxic activity
same,effect on cell replication,[4]; dose range 5 and 10 mcg/ml,significant cytostatic activity
same,cells in apoptosis,[5],50%
same,time at which plateau of cell mortality is reached,[6],24 h
same,dose from which significant block of the cellular cycle on G1-S/G2M level is observed,[7],≥ 5 µg/mL
same,inhibition of tumor growth,[8]; 5 and 10 mcg/ml,does not induce any significant effect
same,inhibition of tumor growth,[8]; 20 mcg/ml,partial
same,inhibition of tumor growth,[8]; 40 mcg/ml,complete
same,apoptosis (peaks of hypodiploidy),[9],absence of measurable peaks of hypodiploidy
same,time of peak of activity on cell mortality,[10],48 h
same,dose from which block of the cellular cycle on G1-S/G2M level is evident,[11],≥ 10 µg/mL
same,halving time in culture medium,[12],38 h
same,amount still present at the end of the test,[12],about 25%
"Oc1ccc(/C=C/c2cc(O)cc(O)c2)cc1 [T-Res, trans-resveratrol, reference compound]",IC50,[1],31.6 µg/mL
same,induction of cell accumulation in stage G1/S,[3],not
same,halving time in culture medium,[12],28 h
same,amount still present at the end of the test,[12],not present as such
